# Measurements published in paper PMC10081574, “Evaluation of Antiviral Activity of Gemcitabine Derivatives against Influenza Virus and Severe Acute Respiratory Syndrome Coronavirus 2” (ACS Infectious Diseases, 2023).
# Read-outs that look alike come from different tables or passages of the source.
# Tests used:
# [1] = tested on: influenza A and B viruses; test: CPE reduction antiviral assay, values summarised over influenza strains PR8, HK and Lee; format: cell-based, influenza virus; conditions: for SI90 against influenza viruses: over PR8, HK and Lee, CC10/EC90
# [2] = tested on: A/Puerto Rico/8/34 (H1N1); test: microbe, parasite or virus in culture; conditions: Influenza A virus, H1N1 / PR8, MDCK, 72 h; for EC50: read-out: EC50 PR8; for EC90: read-out: EC90 PR8
# MDCK cells = conditions: dog, 3 days
# in vitro = conditions: dog
# B/Lee/40 = test: CPE reduction antiviral assay in Lee-infected MDCK cells (MTT); format: cell-based, influenza B virus; conditions: for EC90 / EC50: Influenza B virus, 72 h, MDCK; for EC90: read-out: EC90 Lee; for EC50: viability of infected cells to 50%; for SI90 Lee: ratio of CC10 to EC90; for SI50 Lee: ratio of CC50 to EC50
# [3] = tested on: A/Puerto Rico/8/34 (H1N1); conditions: for SI90 PR8: ratio of CC10 to EC90; for SI50 PR8: ratio of CC50 to EC50
# A/Hong Kong/8/68 (H3N2) [4] = test: microbe, parasite or virus in culture; conditions: Influenza A virus, H3N2, MDCK, 72 h; for EC50: read-out: EC50 HK; for EC90: read-out: EC90 HK
# A/Hong Kong/8/68 (H3N2) [5] = conditions: for SI90 HK: ratio of CC10 to EC90; for SI50 HK: ratio of CC50 to EC50
# [6] = MOI 0.001, day 3, viability of infected cells to 90%
# [7] = MOI 0.001, day 3, read-out: EC50 Lee
# [8] = read-out: EC50 Lee, MDCK, MOI 0.001, day 3
Structure (SMILES),SI90 against influenza viruses [1],EC50 [2],EC90 [2],CC10 (MDCK cells),CC50 at 3 days (in vitro),EC90 (B/Lee/40; [6]),EC50 (B/Lee/40; [7]),SI90 Lee (B/Lee/40),SI50 Lee (B/Lee/40),SI90 PR8 [3],SI50 PR8 [3],EC50 (A/Hong Kong/8/68 (H3N2) [4]),EC90 (A/Hong Kong/8/68 (H3N2) [4]),SI90 HK (A/Hong Kong/8/68 (H3N2) [5]),SI50 HK (A/Hong Kong/8/68 (H3N2) [5]),EC50 (B/Lee/40; [8]),EC90 (B/Lee/40),"EC90 ([1]; Influenza A virus, PR8, MDCK, span over PR8, HK and Lee, MDCK, read-out: EC90 against influenza viruses)","recovery of viability of virus-infected cells with 90% cutoff ([1]; MDCK, day 3)",antiviral activity against influenza viruses (in words) [1]
Cc1ccc(C(=O)Nc2ccn([C@@H]3O[C@H](CO)[C@@H](O)C3(F)F)c(=O)n2)nc1 [Compound 2b],> 1.4,13.4 ± 0.9 µM,25.3 ± 1.3 µM,209.2 ± 61.7 µM,> 300 µM,43.8 ± 24.4 µM,8.1 ± 0.7 µM,4.8,> 37.3,8.3,> 22.4,51.8 ± 42.6 µM,117 ± 18.5 µM,1.8,> 5.8,–,–,–,–,–
Cc1cccnc1C(=O)Nc1ccn([C@@H]2O[C@H](CO)[C@@H](O)C2(F)F)c(=O)n1 [Compound 2c],> 1.4,32.8 ± 5.8 µM,114 ± 24.7 µM,>300.0 µM,> 300 µM,–,26.2 ± 2 µM,–,> 11.5,> 2.6,> 9.2,26.8 µM,41.2 ± 0.5 µM,> 7.3,> 11.2,–,–,–,–,–
O=C(Nc1ccn([C@@H]2O[C@H](CO)[C@@H](O)C2(F)F)c(=O)n1)c1ccc(-c2ccccc2)cn1 [Compound 2d],> 1.4,46.1 ± 3 µM,119 ± 66.2 µM,>300.0 µM,> 300 µM,–,–,–,> 7.7,–,> 6.5,50.2 ± 3.4 µM,219 ± 36.3 µM,> 1.4,> 6.0,39.1 ± 3.2 µM,–,–,–,–
COc1ccc(C(=O)Nc2ccn([C@@H]3O[C@H](CO)[C@@H](O)C3(F)F)c(=O)n2)nc1 [Compound 2g],> 1.4,28.5 ± 4.2 µM,68.8 ± 22.7 µM,>300.0 µM,> 300 µM,98.1 ± 16.7 µM,13.3 ± 2.7 µM,> 3.1,> 22.6,> 4.4,> 10.5,18.6 ± 0.1 µM,32.3 ± 0.7 µM,> 9.3,> 16.1,–,–,–,–,–
O=C(Nc1ccn([C@@H]2O[C@H](CO)[C@@H](O)C2(F)F)c(=O)n1)c1ccc([N+](=O)[O-])cn1 [Compound 2i],> 1.4,1.1 µM,2.2 ± 0.2 µM,17.9 ± 6.7 µM,> 300 µM,–,–,11.0,> 464.8,8.1,–,0.6 ± 0.1 µM,1.1 µM,15.7,> 518.5,0.7 µM,1.6 ± 0.1 µM,–,–,–
O=C(Nc1ccn([C@@H]2O[C@H](CO)[C@@H](O)C2(F)F)c(=O)n1)c1ccc(F)nc1 [Compound 3c],–,3.3 ± 0.1 µM,12.5 ± 3.6 µM,–,> 300 µM,22.6 ± 2 µM,1.8 ± 0.3 µM,11.1,> 170.6,20.0,> 90.6,2.6 ± 0.4 µM,4.9 ± 0.4 µM,51.2,> 116.6,–,–,4.9 to 22.6 µM,active,–
O=C(Nc1ccn([C@@H]2O[C@H](CO)[C@@H](O)C2(F)F)c(=O)n1)c1ccc(Cl)nc1 [Compound 3d],–,12.6 ± 2.5 µM,–,91.1 ± 53.8 µM,> 300 µM,–,10.6 ± 1.7 µM,–,> 28.4,–,> 23.8,9.5 ± 0.3 µM,–,–,> 31.5,–,–,–,–,–
COc1ccc(C(=O)Nc2ccn([C@@H]3O[C@H](CO)[C@@H](O)C3(F)F)c(=O)n2)cn1 [Compound 3e],–,23.5 ± 4.1 µM,–,129.7 ± 74.0 µM,> 300 µM,–,18.5 ± 2 µM,–,> 16.2,–,> 12.8,24 ± 2 µM,–,–,> 12.5,–,–,–,–,–
O=C(Nc1ccn([C@@H]2O[C@H](CO)[C@@H](O)C2(F)F)c(=O)n1)c1ccc(C(F)(F)F)nc1 [Compound 3f],–,4.1 ± 0.3 µM,–,7.9 ± 8.4 µM,> 300 µM,–,4.1 ± 0.1 µM,–,> 73.9,–,> 73.6,3.5 ± 0.6 µM,–,–,> 84.7,–,–,–,–,–
Cc1nc(C(F)(F)F)ccc1C(=O)Nc1ccn([C@@H]2O[C@H](CO)[C@@H](O)C2(F)F)c(=O)n1 [Compound 3g],–,–,–,8.7 ± 8.2 µM,> 300 µM,–,–,–,–,–,–,–,–,–,–,–,–,–,–,completely lost antiviral activity
"NC(=O)c1nc(F)c[nH]c1=O [Favipiravir, reference compound]",–,1.8 ± 0.1 µM,8.5 ± 0.2 µM,>300.0 µM,> 300 µM,16.3 ± 4.2 µM,1.5 ± 0.2 µM,> 18.4,> 200.0,> 35.3,> 166.7,3 ± 0.4 µM,6.9 ± 1.8 µM,> 43.5,> 100.0,–,–,–,–,–
"CCC(CC)O[C@@H]1C=C(C(=O)O)C[C@H](N)[C@H]1NC(C)=O [Oseltamivir carboxylate, reference compound]",–,0.8 ± 0.4 µM,12.5 ± 8.1 µM,>300.0 µM,> 300 µM,60.4 ± 0.1 µM,10 ± 0.9 µM,> 5.0,> 30.0,> 24.0,> 375.0,< 0.05 µM,0.5 ± 0.2 µM,> 600.0,"> 6,000",–,–,–,–,–
